Source: publication PMC12557367, ““Precision on Two Wheels”–Structural Refinement of ^64Cu- and ^68Ga-Labeled Bicyclic Peptides Targeting Nectin‑4 for Improved Tumor Imaging: From Preclinical Development to First-in-Human Application” (Journal of Medicinal Chemistry, 2025)
Numbered stars: 1 amine (or outer) side, 2 acyl side, 3 side chain; on linkers, the order of the positions; unused ones are H or OH. Bridge positions count the residues as written; N and C are the ends. Square brackets hold non-standard residues; d marks the D form. Peptide text beside a SMILES is read from it. * marks the point of attachment. DOTA = O=C(O)CN1CCN(CC(=O)O)CCN(CC(=O)*)CCN(CC(=O)O)CC1; TATA = O=C(CC[*:1])N1CN(C(=O)CC[*:2])CN(C(=O)CC[*:3])C1; X1 = O=C(O)CN1CCN(CC(=O)O)CCN([C@H](CCC(=O)*)C(=O)O)CC1; 1Nal = N[C@@H](Cc1cccc2ccccc12)C(=O)O; 2Nal = N[C@@H](Cc1ccc2ccccc2c1)C(=O)O; Hyp = O=C(O)[C@@H]1C[C@@H](O)CN1; hArg = N=C(N)NCCCC[C@H](N)C(=O)O

Assays:
[1] = Oxidation stability in H2O2 (radio-HPLC)
Experimental: To avoid a too rapid degradation of radiolabeled peptides, a low H2O2 concentration of 0.0012% was chosen. […] In this context, there are three further thioether functionalities in each peptide due to the cyclization of the Cys residues with TATA. In Figure , the curves for the time-dependent degradation of the intact radioligands are depicted, from which the respective half-lives were calculated.
The stability toward oxidizing conditions was assessed with H2O2. For this purpose, the radioligands (2 nmol, 48 μL of labeling mixture) were treated with H2O2 (2 μL of 0.03%, final concentration of 0.0012%) at ambient temperature. At distinct time points (3, 5, and 7 h), an aliquot of 2 μL was withdrawn and diluted with 48 μL of a mixture named “Supersol,” which consists of 20% ethanol, 0.5% Triton X-100, 5 mM EDTA, 0.5 mM o-phenanthroline, and 0.1% saponin. […] The resulting solutions were analyzed by radio-HPLC (same system as that used for analyzing the ^64Cu-labelings).

[2] = Small animal PET/CT imaging; set-up: species or system mice; conditions: mouse, in vivo
Experimental: (§1) All animal experiments were performed following the protocols evaluated and approved by the Landesdirektion Sachsen, Referat 25 – Veterinärwesen, Lebensmittelüberwachung and Pharmazie (09105 Chemnitz, Germany, ethics approval number: 25-5131/562/52). HT-1376- and 5637-derived tumor xenograft models were established in NMRI nude mice (Rj: NMRI-Foxn1nu/nu, Charles River Laboratories, Sulzfeld, Germany) by subcutaneous injection of 5 × 10^6 cells in 100 μL of PBS containing 50% (v/v) Matrigel (Corning Life Sciences, Amsterdam, The Netherlands).
(§2) When the tumor volume reached 200 mm^3, PET experiments with radiotracers were performed. Radiolabeling of the ligands was performed as described previously with an apparent molar activity of 25 MBq/nmol. The radioligand stock solution (pH 6.5 – 7.5) was diluted in 0.9% NaCl, and 200 μL containing ∼9 MBq ([…]) was injected per mouse intravenously into a lateral tail vein. For blocking of target-specific radioligand binding, 75 nmol of blocking substance (1d) was administered simultaneously with the radioligand. Coincidences were recorded continuously in a 2 h PET-scan starting with the injection. Additionally, a CT scan was performed for anatomical referencing and attenuation correction. PET/CT imaging, reconstruction, and tissue delineation were carried out as described previously.

[3] = test system: HT-1376-derived tumor xenograft model; experiment: Small animal PET/CT imaging; set-up: species or system mice; conditions: mouse, in vivo
Experimental: as §1, §2

[4] = biological target: T1, immobilized human nectin-4 (Homo sapiens, UniProt Q96NY8); experiment: SPR analysis of binding kinetics
T1 construct: close to the value determined for the complete extracellular domain of nectin-4 (0.94 nM); purchased R&D Systems 2659-N4
T1 sequence (Q96NY8 32-349 limits assumed): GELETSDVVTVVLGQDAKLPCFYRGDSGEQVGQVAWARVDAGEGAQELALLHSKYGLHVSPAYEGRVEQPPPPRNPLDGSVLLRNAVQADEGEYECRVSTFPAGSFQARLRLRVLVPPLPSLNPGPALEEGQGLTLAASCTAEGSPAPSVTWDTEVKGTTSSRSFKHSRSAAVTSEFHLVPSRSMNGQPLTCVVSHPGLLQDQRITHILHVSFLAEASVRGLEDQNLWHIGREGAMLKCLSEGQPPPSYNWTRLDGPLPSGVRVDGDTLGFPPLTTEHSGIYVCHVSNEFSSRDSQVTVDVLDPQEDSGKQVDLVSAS

[5] = biological target: T2, recombinant human nectin-4 (Homo sapiens, UniProt Q96NY8); experiment: FA-based competitive binding assay with probe 1a; conditions: competitive binding curve, variable slope
T2 construct: close to the value determined for the complete extracellular domain of nectin-4 (0.94 nM); purchased R&D Systems 2659-N4
T2 sequence (Q96NY8 32-349 limits assumed): T1 sequence (Q96NY8 32-349 limits assumed)
Experimental: For the competitive binding assay, a constant concentration of probe 1a (1 nM) and of nectin-4 (20 nM) was used, and the concentration of the competitors was varied over at least 3 orders of magnitude. […] Analysis of the curves by nonlinear regression according to dose–response inhibition with variable slope, as implemented in GraphPad Prism (see Experimental section), provided the IC50 value for displacing the probe from nectin-4.
All measurements were conducted at 37 °C over 1200 s (interval of 37 s) using a Cytation 5 multimode microplate reader (BioTek Instruments, Software Gen 5) and black 96-well microplates (BRANDplates with F-bottom wells). Experiments were conducted at an excitation wavelength of 540 nm and an emission wavelength of 620 nm. The FA (r) was calculated by Gen 5 software from the measured parallel and perpendicular fluorescence intensities (I ∥ and I ⊥, respectively) according to eq using a G factor of 0.87 (preset value). r=I∥−G×I⊥/I∥+2G×I⊥ 1
All further data analyses were conducted with GraphPad Prism (version 10.4.1, GraphPad Software, San Diego, CA, USA). The assay mixture (100 μL) contained an aqueous solution (99 μL) and DMSO (1%, v/v, 1 μL).
For the competitive binding assay, fixed concentrations of probe 1a (1 nM) and recombinant human nectin-4 (20 nM) and 10 concentrations of nonlabeled peptide (e.g., […] prepared as serial 1:1 dilution) were used (two separate experiments, each performed in duplicate). The corresponding stock solutions of 1a (2.5 nM) and nectin-4 (50 nM) were prepared in HEPES buffer, while the stock solutions of the nonlabeled peptides were prepared in 5% DMSO/HEPES buffer. nectin-4 (40 μL) and 1a (40 μL) were added to the wells, and the competition was started by the addition of the nonlabeled peptides (20 μL). The FA values were averaged over the time period of 1200 s, and plots of FA = f([peptide]) were analyzed by nonlinear regression according to the model “[inhibitor] vs. response – Variable slope (four parameters)” as implemented in GraphPad Prism. […] Therefore, the lower FA plateau was constrained to the FA value of probe 1a in the absence of nectin-4 and the competitor, which was recorded in each experiment.

SMILES | half-life ([2]; Blood half life fast [min]) [min] | half-life ([2]; Blood half life slow [min]) [min] | Percent fast [%] [3] [%] | body retention at 2 h p.i. [3] | time of highest tumor uptake [3] | half-life [1] [min] | further results
CCSC[C@@H]1NC(=O)[C@@H]2CSCCC(=O)N3CN(CN(C3)C(=O)CCSC[C@H](NC(=O)CC[C@H](C(=O)O)N3CCN(CC(=O)O)CCN(CC(=O)O)CC3)C(=O)N3CCC[C@H]3C(=O)N[C@@H](Cc3cccc4ccccc34)C(=O)N[C@H](CC(=O)O)C(=O)N2)C(=O)CCSC[C@@H](C(N)=O)NC(=O)[C@H](Cc2c[nH]c3ccccc23)NC(=O)[C@@H]2C[C@@H](O)CN2C(=O)[C@@H]2CCCN2C(=O)[C@H]([C@@H](C)O)NC(=O)[C@H](CO)NC(=O)[C@H](Cc2c[nH]c3ccccc23)NC(=O)[C@H](CC(=O)O)NC(=O)[C@H](CCCCNC(=N)N)NC1=O [[^64Cu]Cu-7, metal not drawn] (X1-CP[1Nal][dD]CC(Et)[hArg]DWSTP[Hyp]WC-NH2; linker 1-5-15 via TATA) | – | – | – | – | – | – | half-life ([1]; half-life of intact radiolabeled peptide (T1/2), 0.0012% H2O2, 25 °C, one-phase decay): 529 min
CSCC[C@@H]1NC(=O)[C@@H]2CSCCC(=O)N3CN(CN(C3)C(=O)CCSC[C@H](NC(=O)CC[C@H](C(=O)O)N3CCN(CC(=O)O)CCN(CC(=O)O)CC3)C(=O)N3CCC[C@H]3C(=O)N[C@@H](Cc3ccc4ccccc4c3)C(=O)N[C@H](CC(=O)O)C(=O)N2)C(=O)CCSC[C@@H](C(N)=O)NC(=O)[C@H](Cc2c[nH]c3ccccc23)NC(=O)[C@@H]2C[C@@H](O)CN2C(=O)[C@@H]2CCCN2C(=O)[C@H]([C@@H](C)O)NC(=O)[C@H](CO)NC(=O)[C@H](Cc2c[nH]c3ccccc23)NC(=O)[C@H](CC(=O)O)NC(=O)[C@H](CCCNC(=N)N)NC1=O [[^64Cu]Cu-8a, metal not drawn] (X1-CP[2Nal][dD]CMRDWSTP[Hyp]WC-NH2; linker 1-5-15 via TATA) | 1.27 ± 0.13 | 35.9 ± 2.08 | 84.87 ±1.35 | 40–42% | ≈ 6 min | 242 | –
CSCC[C@@H]1NC(=O)[C@@H]2CSCCC(=O)N3CN(CN(C3)C(=O)CCSC[C@H](NC(=O)CC[C@H](C(=O)O)N3CCN(CC(=O)O)CCN(CC(=O)O)CC3)C(=O)N3CCC[C@H]3C(=O)N[C@@H](Cc3cccc4ccccc34)C(=O)N[C@H](CC(=O)O)C(=O)N2)C(=O)CCSC[C@@H](C(N)=O)NC(=O)[C@H](Cc2c[nH]c3ccccc23)NC(=O)[C@@H]2C[C@@H](O)CN2C(=O)[C@@H]2CCCN2C(=O)[C@H]([C@@H](C)O)NC(=O)[C@H](CO)NC(=O)[C@H](Cc2c[nH]c3ccccc23)NC(=O)[C@H](CC(=O)O)NC(=O)[C@H](CCCNC(=N)N)NC1=O [[^64Cu]Cu-10, metal not drawn] (X1-CP[1Nal][dD]CMRDWSTP[Hyp]WC-NH2; linker 1-5-15 via TATA) | – | – | – | – | – | 208 | –
CSCC[C@@H]1NC(=O)[C@@H]2CSCCC(=O)N3CN(CN(C3)C(=O)CCSC[C@H](NC(=O)CN3CCN(CC(=O)O)CCN(CC(=O)O)CCN(CC(=O)O)CC3)C(=O)N3CCC[C@H]3C(=O)N[C@@H](Cc3ccc4ccccc4c3)C(=O)N[C@H](CC(=O)O)C(=O)N2)C(=O)CCSC[C@@H](C(N)=O)NC(=O)[C@H](Cc2c[nH]c3ccccc23)NC(=O)[C@@H]2C[C@@H](O)CN2C(=O)[C@@H]2CCCN2C(=O)[C@H]([C@@H](C)O)NC(=O)[C@H](CO)NC(=O)[C@H](Cc2c[nH]c3ccccc23)NC(=O)[C@H](CC(=O)O)NC(=O)[C@H](CCCNC(=N)N)NC1=O [[^68Ga]Ga-8c, metal not drawn] ({DOTA}-CP[2Nal][dD]CMRDWSTP[Hyp]WC-NH2; linker 1-5-15 via TATA) | 1.44 ± 0.19 | 38.8 ± 2.49 | 78.28 ±1.97 | 75% | 8.5 min | – | –
CSCC[C@@H]1NC(=O)[C@@H]2CSCCC(=O)N3CN(CN(C3)C(=O)CCSC[C@H](NC(=O)CN3CCN(CC(=O)O)CCN(CC(=O)O)CCN(CC(=O)O)CC3)C(=O)N3CCC[C@H]3C(=O)N[C@@H](Cc3ccc4ccccc4c3)C(=O)N[C@H](CC(=O)O)C(=O)N2)C(=O)CCSC[C@@H](C(=O)O)NC(=O)[C@H](Cc2c[nH]c3ccccc23)NC(=O)[C@@H]2C[C@@H](O)CN2C(=O)[C@@H]2CCCN2C(=O)[C@H]([C@@H](C)O)NC(=O)[C@H](CO)NC(=O)[C@H](Cc2c[nH]c3ccccc23)NC(=O)[C@H](CC(=O)O)NC(=O)[C@H](CCCNC(=N)N)NC1=O [[^68Ga]Ga-8d, metal not drawn, reference compound] ({DOTA}-CP[2Nal][dD]CMRDWSTP[Hyp]WC-OH; linker 1-5-15 via TATA) | 1.5 ± 0.15 | 37.1 ± 2.19 | 83.87 ±1.35 | 35% | 0.6 min | – | –
CSCC[C@@H]1NC(=O)[C@@H]2CSCCC(=O)N3CN(CN(C3)C(=O)CCSC[C@H](NC(=O)CC[C@H](C(=O)O)N3CCN(CC(=O)O)CCN(CC(=O)O)CC3)C(=O)N3CCC[C@H]3C(=O)N[C@@H](Cc3ccc4ccccc4c3)C(=O)N[C@H](CC(=O)O)C(=O)N2)C(=O)CCSC[C@@H](C(N)=O)NC(=O)[C@H](Cc2c[nH]c3ccccc23)NC(=O)[C@@H]2C[C@@H](O)CN2C(=O)[C@@H]2CCCN2C(=O)[C@H]([C@@H](C)O)NC(=O)[C@H](CO)NC(=O)[C@H](Cc2c[nH]c3ccccc23)NC(=O)[C@H](CC(=O)O)NC(=O)[C@H](CCCCNC(=N)N)NC1=O [compound 9] | – | – | – | – | – | – | kon ([4]; HBS-P+ pH 7.4, 25 °C, ±SEM, read-out: k on (SPR, *10^6 M^–1 s^–1)): 1.69e+07 M⁻¹ s⁻¹; fold increase in k off vs 1e ([4]; SPR): 18 fold; koff ([4]; pH 7.4, HBS-P+ pH 7.4, 25 °C, ±SEM, read-out: k off (SPR, *10^–3 s^–1)): 0.0765 s⁻¹; Hill coefficient n [5]: 1.57
